Assays:
CD56+ NK lineage cells = experiment: NK-cell Maturation Culture (Example 41); assay type: cell-based, human; settings: for % Mature cells: CD3−/CD19−/CD56+ of Live / % Mature cells: CD16+ of Live/CD3−/CD19−/CD56+ / % Mature cells: CD94+ of Live/CD3−/CD19−/CD56+ / % Mature cells: CD161+ of Live/CD3−/CD19−: NK, +Formula I-expanded CD34+ cells
Method: Following 14 days in Lymphoid Progenitor Differentiation Cultures, cells were placed into T- and NK-cell Maturation Cultures.
For NK-cell Maturation Cultures, cells from L Diff Cultures were plated at 25,000 cells per well in TC-treated 48-well plates with 250 μl of NK-cell Differentiation Medium, comprising StemSpan SFEM II medium with StemSpan NK Cell Differentiation Supplement and UM171 (STEMCELL Technologies), prepared according to the manufacturer's instructions, except substituting UM171 at 100 nM for the 1 μM UM729 called for in the protocol.
Following 4 days of culture, NK- and T-cell Maturation Cultures' medias were replenished by adding an equal volume of the same culture media added on day 14. At days 21 and 25 of NK- or T-cell Maturation Cultures, half-media changes were performed by removing half of the total volume of media without disturbing cells and adding media freshly prepared as on day 14.
Following 7 and 14 days in NK- and T-cell Maturation Culture (21 and 28 days from initiation of Lymphoid Differentiation Culture, respectively), cells were stained with antibodies to CD56, CD3, CD161, CD94, and CD16 and analyzed via flow cytometry to quantify T and NK lineage phenotypes.
“Adult Peripheral Blood Unit Equivalents per CBU” was calculated by multiplying each condition's Scaled Output (per CD34+ cell) by 10^6, a conservative estimate of the number of CD34+ cells in an umbilical cord blood unit, then dividing that quantity by the number of CD56+, CD3+ or CD8+ cells typically found in a unit of donated adult peripheral blood: 5×10^7 (CD56+), 10^9 (CD3+) or 3×10^8, according to Invitrogen (https://assets.thermofisher.com/TFS-Assets/LSG/brochures/I-076357%20cell%20count%20table%20topp_WEB.pdf).

[1] = test system: expanded cord blood CD34+ cells, granulocyte (CD15+/CD14−) and monocyte (CD14+/CD15−) lineage; experiment: Myeloid (granulocyte and monocyte) Differentiation Culture after Expansion Culture (Example 38); assay type: cell-based, human
Method: At days 21 and 63, CD34+ enriched cells were placed into Differentiation Cultures, described below.
Differentiation cultures were initiated using Erythroid, Myeloid (granulocyte and monocyte), and Megakaryocyte HemaTox kits from STEMCELL technologies following the manufacturer's instructions. In brief, lineage media was prepared by adding cytokine cocktails for erythrocyte (SCF, IL-3, and EPO), myeloid (i.e. mixed granulocyte/monocyte, SCF, TPO, G-CSF, and GM-CSF) or megakaryocyte (SCF, IL-6, IL-9 and TPO) lineage differentiation to their respective kits' media, then adding approximately 30-100 CD34+ cells for erythroid or myeloid cultures, or 300-1000 CD34+ cells for megakaryoid cultures. Exact cell numbers plated were quantified for later analysis. All incubations for Differentiation Culture took place at 3% oxygen (controlled by nitrogen) and 5% CO2.
Following seven days of erythroid or myeloid cultures, or ten days for megakaryoid cultures, differentiated cell output was quantified using flow cytometry. Erythroid output was quantified using anti-CD71 and anti-CD235a antibodies, and megakaryocyte lineage output was quantified using anti-CD41 and anti-CD42b antibodies. Granulocyte and monocyte lineage outputs were assessed in tandem, using CD14 and CD15 antibodies, with granulocyte lineage cells being CD15+/CD14−, and monocyte lineage cells being CD14+/CD15−.
A number of quantities were calculated to assess the effect of expansion of CD34+ cells in the +Formula I Condition on the output of lineage differentiated cells. “Per-Assayed-CD34+ Cell Output” describes the output of differentiated cells per CD34+ cell placed into Differentiation Culture, and is calculated by dividing the total number of lineage-positive cells by the input CD34+ cell number quantified at Differentiation Culture initiation at day 1, 21, or 63. “Per-expanded-day-1-CD34+ cell output” describes the number of differentiated cells of a given lineage that may be produced from a single CD34+ cell following both Expansion Cell Culture (if expanded) followed by Differentiation Culture, and is calculated by multiplying Per-Assayed-CD34+ Cell Output by the fold expansion of CD34+ cells from day 1 to the day of analysis, either day 21 or day 63. […] We calculated therapeutic units for granulocyte precursors, using 50 billion (5×10^10) cells per dose as a conservative benchmark (Valentini, C. G., Farina, F., Pagano, L., and Teofili, L. (2017). Granulocyte Transfusions: A Critical Reappraisal. Biol. Blood Marrow Transplant. 23, 2034-2041). […]

[2] = +Formula I expansion to day 21, then 7 days differentiation
[3] = +Formula I expansion to day 63, then 7 days differentiation

## CC(C)(C)C(=O)Nc1ccc2c(c1)C(O)c1ccccc1-2 (stereo not shown) [Compound 1.010]
CD56+ NK lineage cells; CD34+ cells first expanded for 14 days in +Formula I conditions
  CD56+ NK cells, of total live cells: 93%
CD56+ NK lineage cells; Lymphoid Diff day 21
  % Mature cells: CD3−/CD19−/CD56+ of Live: 91%
  % Mature cells: CD16+ of Live/CD3−/CD19−/CD56+: 31%
  % Mature cells: CD94+ of Live/CD3−/CD19−/CD56+: 7.8%
  % Mature cells: CD161+ of Live/CD3−/CD19−: 81%
CD56+ NK lineage cells; Lymphoid Diff day 28
  % Mature cells: CD3−/CD19−/CD56+ of Live: 95%
  % Mature cells: CD16+ of Live/CD3−/CD19−/CD56+: 16%
  % Mature cells: CD94+ of Live/CD3−/CD19−/CD56+: 3.5%
  % Mature cells: CD161+ of Live/CD3−/CD19−: 89%
[1]; [2]
  fold increase of per-expanded-day-1-CD34+ cell output, monocyte lineage, over uncultured cells: 800 fold
  fold increase of per-expanded-day-1-CD34+ cell output, total granulocyte lineage, over uncultured cells: 370 fold
[1]; [3]
  fold increase of per-expanded-day-1-CD34+ cell output, monocyte lineage, over uncultured cells: 108,000 fold
  fold increase of per-expanded-day-1-CD34+ cell output, total granulocyte lineage, over uncultured cells: 67,000 fold
